Experimental data from patent publication US20250346943A1, “DEGRADER COMPOUNDS OF QSOX1 mRNA” (UNIVERSITY OF FLORIDA RESEARCH FOUNDATION, INCORPORATED, priority 2022, published 2025).

Tests used:
[1] = molecular target: QSOX1 5′UTR hairpin (model of the QSOX1-a binding site); assay: In vitro binding by fluorescence polarization, Cy5-labeled WT RNA; set-up: species or system human
Method: In Vitro Binding by Measuring Changes in Fluorescence Polarization. Cy5-labeled RNA was folded by heating at 95° C. for 2 min in 1× Folding Buffer and cooled on ice. Serial dilutions of F1 (200 to 0.4 μM, 1:1 dilutions) were prepared in 1× Folding Buffer with 4% (w/v) bovine serum albumin (BSA) with constant DMSO concentration (2% v/v). The compound solutions (10 μL) were added to a well of non-binding 384-well plate (Corning). An equal volume of folded RNA was adding to each well with a final concentration of 50 nM. The samples were incubated at room temperature for 30 min, and then fluorescence polarization was measured with a Molecular Devices SpectraMax M5 plate reader with an excitation wavelength of 640 nm and an emission wavelength of 680 nm.

[2] = system: QSOX1-a protein; assay: QSOX1-a protein abundance by Western blotting in MDA-MB-231 cells; assay type: cell-based, human; conditions: 20 μM
Method: Measuring Protein Abundance by Western Blotting. MDA-MB-231 cells were seeded in 6-well plates at ˜50% confluency and treated with vehicle (DMSO) or compound as described above but without EU treatment. After 16 h, the compound-containing growth medium was removed and replaced with fresh medium containing compound (re-dosing). After an additional 32 h incubation, total protein was harvested (48 h total treatment time). The cells were then washed twice with cold 1×DPBS, and total protein was harvested by using Mammalian Protein Extraction Reagent (M-PER, Thermo Scientific) per the manufacturer's protocol. Protein concentration was quantified by using BCA Protein Assay Kit (Pierce), and the proteins were separated by using 10% SDS-polyacrylamide gel (20 μg protein per lane). After gel electrophoresis in 1× Running Buffer (50 mM MOPS, 50 mM Tris-base, pH 7.5, 1 mM EDTA, and 0.1% (w/v) SDS) at 120 V for 1 h, the proteins were transferred to a PVDF membrane (0.45 μm, Cytiva) at 300 mA for 1 h in 1× Transfer Buffer (25 mM Bicine, 25 mM Tris-base, pH 7.5, 1:4 MeOH:H2O). The membrane was blocked with 5% (w/v) non-fat dry milk in TBST (1×TBS containing 0.1% (v/v) Tween-20) for 1 h at room temperature. The primary antibody for QSOX1 protein (Cat #10092-932, Proteintech) or SQSTM1 protein (Cat #ab 109012, Abcam) was incubated with 1:1000 dilutions at 4° C. for 16 h. The membrane was then washed by TBST four times (5 min each) and then incubated with the secondary antibody (Cat #7074S, Cell Signaling) with 1:5000 dilution at room temperature for 2 h. The membrane was washed with TBST four times (5 min each) and imaged by using a SuperSignal West Pico Chemiluminescent Substrate (Pierce) per manufacturer's protocol. The blot was stripped by washing the membrane in 1× Stripping Buffer (200 mM glycine, pH 2.2, 4 mM SDS, 1% (v/v) Tween 20) at room temperature for 30 min, followed by blocking again as described above. […] Expression levels of proteins were quantified based on band intensity by using ImageJ. […]

[3] = system: MDA-MB-231 cells; assay: Invasion assay; assay type: cell-based, human; conditions: 48 h
Method: Invasion Assay. MDA-MB-231 cells were seeded in […] and treated with compound or transfected by ASO for 48 h as described in Cell Culture. After treatment for 48 h, the medium was replaced with fresh medium that contains same concentration of compound but lacking FBS for 8 h (serum starvation). ThinCert (GBO) 24-well inserts with 8 μm pores were coated with 100 μL of 0.5 mg/mL Matrigel (Fisher Scientific: CB40234) per well, and then cells were added into the insert (50,000 cells per well). Fresh growth medium with FBS was added to a 24-well plate (600 μL each well), and the inserts containing cells were placed on the top, allowing medium to cover the bottom of the insert. After 16 h, all medium was removed, and cells were washed by 1×DPBS twice. Cells were then fixed with 3% (w/v) paraformaldehyde (PFA) in 1×DPBS at room temperature for 30 min, followed by staining with Crystal Violet (10 mg/mL; 4:1H2O:MeOH) at room temperature for 20 min. A cotton swab was used to gently remove non-invasive cells on sitting on top of the Matrigel. The inserts were then imaged under a regular optical microscope (3 views per well), and the number of invasive cells were counted manually.

[4] = molecular target: T1, RNase L (Homo sapiens, UniProt Q05823); conditions: versus the RNase L recruiting module of F1-RIBOTAC; cited from earlier work
T1 sequence (Q05823 1-741): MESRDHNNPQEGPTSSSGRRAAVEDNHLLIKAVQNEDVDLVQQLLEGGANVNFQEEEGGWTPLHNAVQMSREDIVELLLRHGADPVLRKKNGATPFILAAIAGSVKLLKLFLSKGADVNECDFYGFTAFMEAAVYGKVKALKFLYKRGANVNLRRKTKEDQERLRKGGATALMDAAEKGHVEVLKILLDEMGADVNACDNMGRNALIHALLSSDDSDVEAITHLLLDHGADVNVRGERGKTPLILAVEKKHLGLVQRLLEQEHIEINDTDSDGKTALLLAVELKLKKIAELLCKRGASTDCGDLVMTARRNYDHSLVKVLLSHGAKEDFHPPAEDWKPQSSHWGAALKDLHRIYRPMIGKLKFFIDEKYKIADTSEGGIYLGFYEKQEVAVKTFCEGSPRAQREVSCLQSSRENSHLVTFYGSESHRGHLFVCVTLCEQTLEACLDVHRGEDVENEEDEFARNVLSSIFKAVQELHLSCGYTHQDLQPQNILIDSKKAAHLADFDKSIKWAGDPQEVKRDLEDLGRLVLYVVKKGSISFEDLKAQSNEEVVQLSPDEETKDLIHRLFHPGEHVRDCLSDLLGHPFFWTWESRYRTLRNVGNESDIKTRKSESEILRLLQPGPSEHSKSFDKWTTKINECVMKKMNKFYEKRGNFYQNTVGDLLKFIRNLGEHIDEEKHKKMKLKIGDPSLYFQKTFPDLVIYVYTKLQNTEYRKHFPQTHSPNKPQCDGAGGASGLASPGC

- Kd [1]: 10 ± 3 µM
Compound: CCOC(=O)C1=C(Nc2ccccc2)S/C(=C\c2ccc(O)c(OCCOCCOCCOCCNC(=O)CCC(=O)N(C)[C@H]3CC[C@@H](c4ccc(Cl)c(Cl)c4)c4ccccc43)c2)C1=O [Compound F1-CTRL]
- reduction of QSOX1-a protein [2]: ~15%
- effect on invasion [3]: no significant effect
- reduction of RNase L recruiting activity [4]: > 20 fold
